We go through 22 compounds from patent US11702404B2, “GLP-1R modulating compounds” (priority 2019, dated 2023).

A short description of series [1]: Microsomal stability, human liver microsomes (predicted hepatic clearance). To be noted: predicted from in vitro microsomal stability data.
In another series the target is GLP-1R (Homo sapiens, UniProt P43220). Description: GLP-1R activation: cAMP increase in CHO cells stably expressing GLP-1R. The format is cell-based.
The mark [2] stands for this setting: cAMP increase, CHO cells stably expressing GLP-1R, 10 point dose response, 30 minutes incubation, read-out: EC50.

By EC50 is commonly meant the concentration needed to bring the measured effect to its halfway point.

Where two headings read alike, the source gives them in different places.

GLP-1R, sequence (P43220 24-463): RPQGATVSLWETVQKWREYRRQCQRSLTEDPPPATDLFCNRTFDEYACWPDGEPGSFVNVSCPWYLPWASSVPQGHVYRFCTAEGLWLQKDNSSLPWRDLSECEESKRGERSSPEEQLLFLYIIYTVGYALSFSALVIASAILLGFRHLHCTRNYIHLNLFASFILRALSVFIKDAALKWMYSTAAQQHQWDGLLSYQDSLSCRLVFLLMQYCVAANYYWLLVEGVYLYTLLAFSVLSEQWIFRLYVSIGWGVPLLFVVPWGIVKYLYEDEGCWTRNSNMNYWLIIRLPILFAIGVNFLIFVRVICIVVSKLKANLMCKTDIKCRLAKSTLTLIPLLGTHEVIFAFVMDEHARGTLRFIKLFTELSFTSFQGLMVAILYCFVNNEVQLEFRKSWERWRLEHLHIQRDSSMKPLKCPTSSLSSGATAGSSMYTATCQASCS

With `COCCn1c(Cc2ccc(-c3cccnc3OCc3ccc(C#N)cc3F)c(F)c2)nc2ccc(C(=O)O)cc21` [Example 108, 2-(4-(2-((4-cyano-2-fluorobenzyl)oxy)pyridin-3-yl)-3-fluorobenzyl)-1-(2-methoxyethyl)-1H-benzo[d]imidazole-6-carboxylic acid], the “Predicted Hepatic Clearance (Pred. Cl.)” value in series [1] is 4.33 mL/min/kg. The EC50 on GLP-1R (setting [2]) worked out at 388 nM.
On the same counts, the results for `COCCn1c(Cc2ccc(-c3ccnc(OCc4ccc(C#N)cc4OC)n3)c(F)c2)nc2ccc(C(=O)O)cc21` [Example 109, 2-(4-(2-((4-cyano-2-methoxybenzyl)oxy)pyrimidin-4-yl)-3-fluorobenzyl)-1-(2-methoxyethyl)-1H-benzo[d]imidazole-6-carboxylic acid] are 12.3 mL/min/kg and 3.38 nM.
For `COCCn1c(Cc2cc(F)c(-c3cccc(OCc4ccc(C#N)cc4F)n3)c(F)c2)nc2ccc(C(=O)O)cc21` [Example 110, 2-(4-(6-((4-cyano-2-fluorobenzyl)oxy)pyridin-2-yl)-3,5-difluorobenzyl)-1-(2-methoxyethyl)-1H-benzo[d]imidazole-6-carboxylic acid], the “Predicted Hepatic Clearance (Pred. Cl.)” value in series [1] was 7 mL/min/kg. The same compound displayed a 50% effective concentration (EC50) at GLP-1R (EC50 (nM)) of 21.8 nM.
In the case of `COCCn1c(Cc2ccc(-c3ccnc(OCc4ccc(C#N)cc4OC)n3)cc2F)nc2ccc(C(=O)O)cc21` [Example 112, 2-(4-(2-((4-cyano-2-methoxybenzyl)oxy)pyrimidin-4-yl)-2-fluorobenzyl)-1-(2-methoxyethyl)-1H-benzo[d]imidazole-6-carboxylic acid], in series [1], the “Predicted Hepatic Clearance (Pred. Cl.)” value is 9.17 mL/min/kg. Moreover, the EC50 on GLP-1R (setting [2]) worked out at 3.76 nM.
As to `COCCn1c(Cc2ccc(-c3cccc(NC(=O)c4ccc(C#N)cc4F)n3)cc2F)nc2ccc(C(=O)O)cc21` [Example 113, 2-(4-(6-(4-cyano-2-fluorobenzamido)pyridin-2-yl)-2-fluorobenzyl)-1-(2-methoxyethyl)-1H-benzo[d]imidazole-6-carboxylic acid], the “Predicted Hepatic Clearance (Pred. Cl.)” value in series [1] is 9.83 mL/min/kg. For the same compound, at GLP-1R (setting [2]), the EC50 is 2150 nM.
On the same counts, the results for `COCCn1c(Cc2ccc(-c3nc(OCc4ccc(C#N)cc4F)ccc3F)c(F)c2)nc2ccc(C(=O)O)cc21` [Example 114, 2-[[4-[6-[(4-cyano-2-fluoro-phenyl)methoxy]-3-fluoro-2-pyridyl]-3-fluoro-phenyl]methyl]-3-(2-methoxyethyl)benzimidazole-5-carboxylic acid] are 5.92 mL/min/kg and 932 nM.
On the same counts, the results for `COCCn1c(Cc2ccc(-c3nc(OCc4ccc(C#N)cc4F)ccc3Cl)cc2F)nc2ccc(C(=O)O)cc21` [Example 115, 2-[[4-[3-chloro-6-[(4-cyano-2-fluoro-phenyl)methoxy]-2-pyridyl]-2-fluoro-phenyl]methyl]-3-(2-methoxyethyl)benzimidazole-5-carboxylic acid] are 8.3 mL/min/kg and 80.9 nM.
On the same counts, the results for `COCCn1c(Cc2ccc(-c3cccc(NC(=O)c4ccccc4)n3)cc2F)nc2ccc(C(=O)O)cc21` [Example 116, 2-(4-(6-benzamidopyridin-2-yl)-2-fluorobenzyl)-1-(2-methoxyethyl)-1H-benzo[d]imidazole-6-carboxylic acid] are 7.33 mL/min/kg and 2520 nM.
Consider `CC1(Cn2c(Cc3ccc(-c4cccc(OCc5ccc(C#N)cc5F)n4)cc3C#N)nc3ccc(C(=O)O)cc32)CC1` [Example 117, 2-(2-cyano-4-(6-((4-cyano-2-fluorobenzyl)oxy)pyridin-2-yl)benzyl)-1-((1-methylcyclopropyl)methyl)-1H-benzo[d]imidazole-6-carboxylic acid], for which the “Predicted Hepatic Clearance (Pred. Cl.)” value in series [1] was less than 1.83 mL/min/kg. The EC50 on GLP-1R (setting [2]) was 62.2 nM.
`COCCn1c(Cc2c(F)cc(-c3cccnc3OCc3ccc(C#N)cc3OC)cc2F)nc2ccc(C(=O)O)cc21` [Example 118, 2-(4-(2-((4-cyano-2-methoxybenzyl)oxy)pyridin-3-yl)-2,6-difluorobenzyl)-1-(2-methoxyethyl)-1H-benzo[d]imidazole-6-carboxylic acid]: the “Predicted Hepatic Clearance (Pred. Cl.)” value in series [1] is 12 mL/min/kg. Also, the EC50 on GLP-1R (setting [2]) is 6.01 nM.
On the same counts, the results for `COc1cc(C#N)ccc1COc1nccc(-c2cc(F)c(Cc3nc4ccc(C(=O)O)nc4n3CC3(CF)CC3)cc2F)n1` [Example 119, 2-(4-(2-((4-cyano-2-methoxybenzyl)oxy)pyrimidin-4-yl)-2,5-difluorobenzyl)-3-((1-(fluoromethyl)cyclopropyl)methyl)-3H-imidazo[4,5-b]pyridine-5-carboxylic acid] are less than 1.83 mL/min/kg and 0.56 nM.
On the same counts, the results for `O=C(O)c1ccc2nc(Cc3cc(F)c(-c4ccnc(OCc5ccc(Cl)cc5F)n4)cc3F)n(CC3(CF)CC3)c2n1` [Example 120, 2-(4-(2-((4-chloro-2-fluorobenzyl)oxy)pyrimidin-4-yl)-2,5-difluorobenzyl)-3-((1-(fluoromethyl)cyclopropyl)methyl)-3H-imidazo[4,5-b]pyridine-5-carboxylic acid] are less than 1.83 mL/min/kg and 1.24 nM.
Turning to `N#Cc1ccc(COc2nccc(-c3cc(F)c(Cc4nc5ccc(C(=O)O)cc5n4C[C@@H]4CCO4)c(F)c3)n2)c(F)c1` [Example 121, (S)-2-(4-(2-((4-cyano-2-fluorobenzyl)oxy)pyrimidin-4-yl)-2,6-difluorobenzyl)-1-(oxetan-2-ylmethyl)-1H-benzo[d]imidazole-6-carboxylic acid], the “Predicted Hepatic Clearance (Pred. Cl.)” value in series [1] was 2.67 mL/min/kg. The concentration for a half-maximal effect (EC50) at GLP-1R (setting [2]) came to 0.66 nM.
On the same counts, the results for `COCCn1c(Cc2ccc(-c3ccc(Cl)c(OCc4ccc(C#N)cc4F)n3)cc2F)nc2ccc(C(=O)O)cc21` [Example 122, 2-(4-(5-chloro-6-((4-cyano-2-fluorobenzyl)oxy)pyridin-2-yl)-2-fluorobenzyl)-1-(2-methoxyethyl)-1H-benzo[d]imidazole-6-carboxylic acid] are less than 1.83 mL/min/kg and 30.6 nM.
On the same counts, the results for `C[C@]1(Cn2c(Cc3ccc(-c4cccc(OCc5ccc(C#N)cc5F)n4)cc3F)nc3ccc(C(=O)O)cc32)CCO1` [Example 123, (R)-2-(4-(6-((4-cyano-2-fluorobenzyl)oxy)pyridin-2-yl)-2-fluorobenzyl)-1-((2-methyloxetan-2-yl)methyl)-1H-benzo[d]imidazole-6-carboxylic acid] are 5.17 mL/min/kg and 3.12 nM.
On the same counts, the results for `COCCn1c(Cc2c(F)cc(-c3ncc(F)c(OCc4ccc(C#N)cc4F)n3)c(F)c2F)nc2ccc(C(=O)O)cc21` [Example 124, 2-(4-(4-((4-cyano-2-fluorobenzyl)oxy)-5-fluoropyrimidin-2-yl)-2,3,6-trifluorobenzyl)-1-(2-methoxyethyl)-1H-benzo[d]imidazole-6-carboxylic acid] are 3.17 mL/min/kg and 0.67 nM.
As for `N#Cc1ccc(COc2nc(-c3ccc(Cc4nc5ccc(C(=O)O)cc5n4C[C@@H]4CCO4)cc3F)ccc2F)c(F)c1` [Example 125, (S)-2-(4-(6-((4-cyano-2-fluorobenzyl)oxy)-5-fluoropyridin-2-yl)-3-fluorobenzyl)-1-(oxetan-2-ylmethyl)-1H-benzo[d]imidazole-6-carboxylic acid], the “Predicted Hepatic Clearance (Pred. Cl.)” value in series [1] is 2.58 mL/min/kg. For the same compound, the EC50 at GLP-1R (setting [2]) was found to be 0.34 nM.
On the same counts, the results for `COCCn1c(Cc2ccc(-c3ncc(F)c(OCc4ccc(C#N)cc4F)n3)cc2F)nc2ccc(C(=O)O)cc21` [Example 126, 2-(4-(4-((4-cyano-2-fluorobenzyl)oxy)-5-fluoropyrimidin-2-yl)-2-fluorobenzyl)-1-(2-methoxyethyl)-1H-benzo[d]imidazole-6-carboxylic acid] are 4.67 mL/min/kg and 3.7 nM.
On the same counts, the results for `N#CCC1(Cn2c(Cc3ccc(-c4ncc(F)c(OCc5ccc(C#N)cc5F)n4)c(F)c3)nc3ccc(C(=O)O)cc32)CC1` [Example 127, 2-(4-(4-((4-cyano-2-fluorobenzyl)oxy)-5-fluoropyrimidin-2-yl)-3-fluorobenzyl)-1-((1-(cyanomethyl)cyclopropyl)methyl)-1H-benzo[d]imidazole-6-carboxylic acid] are 6.7 mL/min/kg and 0.34 nM.
Take `N#Cc1ccc(COc2nc(-c3ccc(Cc4nc5ccc(C(=O)O)cc5n4C[C@@H]4CCO4)c(F)c3)ccc2F)c(F)c1` [Example 128, (S)-2-(4-(6-((4-cyano-2-fluorobenzyl)oxy)-5-fluoropyridin-2-yl)-2-fluorobenzyl)-1-(oxetan-2-ylmethyl)-1H-benzo[d]imidazole-6-carboxylic acid]: the “Predicted Hepatic Clearance (Pred. Cl.)” value in series [1] was less than 1.83 mL/min/kg. The EC50 at GLP-1R (setting [2]) came to 0.51 nM.
On the same counts, the results for `N#CCC1(Cn2c(Cc3cc(F)c(-c4nc(OCc5ccc(C#N)cc5F)ncc4F)cc3F)nc3ccc(C(=O)O)nc32)CC1` [Example 129, 2-(4-(2-((4-cyano-2-fluorobenzyl)oxy)-5-fluoropyrimidin-4-yl)-2,5-difluorobenzyl)-3-((1-(cyanomethyl)cyclopropyl)methyl)-3H-imidazo[4,5-b]pyridine-5-carboxylic acid] are 3.17 mL/min/kg and 0.7 nM.
Regarding `N#CCC1(Cn2c(Cc3cc(F)c(-c4ccc(F)c(OCc5ccc(C#N)cc5F)n4)cc3F)nc3ccc(C(=O)O)nc32)CC1` [Example 130, 2-(4-(6-((4-cyano-2-fluorobenzyl)oxy)-5-fluoropyridin-2-yl)-2,5-difluorobenzyl)-3-((1-(cyanomethyl)cyclopropyl)methyl)-3H-imidazo[4,5-b]pyridine-5-carboxylic acid], the “Predicted Hepatic Clearance (Pred. Cl.)” value in series [1] is 5.5 mL/min/kg. On GLP-1R (setting [2]), the EC50 stood at 0.11 nM.
